From ChEMBL document CHEMBL1201862, “PubChem BioAssay data set” (2004)
Calls of active or inactive are those of the source.

Legend:
[1] = target: Voltage-dependent T-type calcium channel subunit alpha-1H (Homo sapiens, UniProt O95180); assay: Cav3.2 T-type channel blockers, cell-based, SynthLib3 library, HEK293 Cav3.2, fluorescence (AID 493041); assay type: functional
Beta-galactosidase = Beta-galactosidase (Escherichia coli, UniProt Q8VNN2); assay type: functional
Mu-type opioid receptor = Mu-type opioid receptor (Homo sapiens, UniProt P35372); assay: HTS Image-Based Screen for Agonists of the MOR Receptor. [Related pubchem assays (depositor defined):AID1777, AID1785, AID1786, AID2133]; assay type: functional;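 also: imaging of beta-arrestin GFP recruitment into spots after receptor activation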
[2] = target: T1, Kappa-type opioid receptor (Homo sapiens, UniProt P41145); assay type: functional
[3] = target: T1, Kappa-type opioid receptor; assay type: functional; remark: listed apart in the source
[4] = target: T2, Delta-type opioid receptor (Homo sapiens, UniProt P41143); assay: HTS Image-Based Screen for Antagonists of the DOR Receptor. [Related pubchem assays (depositor defined):AID1777, AID1785, AID1786, AID2133]; assay type: functional
[5] = target: T2, Delta-type opioid receptor; assay: HTS Image-Based Screen for Agonists of the DOR Receptor. [Related pubchem assays (depositor defined):AID1777, AID1786, AID2133]; assay type: functional
[6] = target: Intestinal-type alkaline phosphatase (Mus musculus, UniProt P24822); assay: PubChem AID 488785; assay type: functional
[7] = target: Intestinal-type alkaline phosphatase (Homo sapiens, UniProt P09923); assay: inhibition of human intestinal alkaline phosphatase – biochemical, dose response (AID 488876); assay type: functional
Procathepsin L = Procathepsin L (Homo sapiens, UniProt P07711); assay: cathepsin L inhibitors, dose response, counter-screen for M1/M17 aminopeptidase inhibitor project, biochemical, QFRET, 1536-well (AID 2214)
Aspartyl aminopeptidase = target: T3, Aspartyl aminopeptidase (Plasmodium falciparum 3D7, UniProt Q8I2J3); assay: Counterscreen for inhibitors of M1 and M17 aminopeptidases: QFRET-based biochemical high throughput dose response assay for inhibitors of the Plasmodium falciparum M18 Aspartyl Aminopeptidase (PFM18AAP). [Related PubChem assays: 1619 (Screening assay (M17LAP inhibitors).), 1445 (Screening assay (M1AAP inhibitors).)]
T3 sequence (Q8I2J3 whole entry): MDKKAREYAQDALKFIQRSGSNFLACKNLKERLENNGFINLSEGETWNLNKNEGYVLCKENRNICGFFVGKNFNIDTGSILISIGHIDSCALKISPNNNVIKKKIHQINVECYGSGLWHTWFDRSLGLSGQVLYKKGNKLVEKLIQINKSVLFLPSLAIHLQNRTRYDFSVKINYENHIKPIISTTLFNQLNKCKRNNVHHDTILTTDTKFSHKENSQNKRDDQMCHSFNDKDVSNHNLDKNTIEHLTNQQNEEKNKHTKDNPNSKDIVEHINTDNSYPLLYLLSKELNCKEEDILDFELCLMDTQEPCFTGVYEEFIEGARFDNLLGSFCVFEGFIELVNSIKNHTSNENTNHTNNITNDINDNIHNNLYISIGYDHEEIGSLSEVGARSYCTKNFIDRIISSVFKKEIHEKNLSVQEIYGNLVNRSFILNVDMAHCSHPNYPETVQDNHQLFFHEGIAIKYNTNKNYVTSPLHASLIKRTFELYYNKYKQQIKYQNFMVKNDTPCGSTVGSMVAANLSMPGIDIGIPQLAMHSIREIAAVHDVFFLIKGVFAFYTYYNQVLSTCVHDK

[8] = target: T4, Alkaline phosphatase, tissue-nonspecific isozyme (Homo sapiens, UniProt P05186); assay: TNAP enzyme inhibition by screening hits, dose response, selectivity assay for mouse IAP inhibitor project, biochemical, human TNAP, uHTS hits (AID 488906); assay type: functional
T4 sequence (P05186 whole entry): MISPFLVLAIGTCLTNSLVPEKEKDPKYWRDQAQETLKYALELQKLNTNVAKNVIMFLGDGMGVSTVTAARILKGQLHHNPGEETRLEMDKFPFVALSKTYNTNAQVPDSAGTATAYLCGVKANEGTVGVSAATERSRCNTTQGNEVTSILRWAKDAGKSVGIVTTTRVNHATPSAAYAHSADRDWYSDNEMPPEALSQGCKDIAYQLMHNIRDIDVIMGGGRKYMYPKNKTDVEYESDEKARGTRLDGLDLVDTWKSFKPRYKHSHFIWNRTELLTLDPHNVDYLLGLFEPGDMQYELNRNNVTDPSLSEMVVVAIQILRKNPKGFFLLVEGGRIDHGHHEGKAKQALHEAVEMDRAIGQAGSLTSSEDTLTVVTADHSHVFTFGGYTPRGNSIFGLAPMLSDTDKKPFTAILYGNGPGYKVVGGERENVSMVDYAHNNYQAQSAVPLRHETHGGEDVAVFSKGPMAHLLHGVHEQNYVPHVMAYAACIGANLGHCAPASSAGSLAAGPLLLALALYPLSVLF

Aminopeptidase N = target: T5, Aminopeptidase N (Plasmodium falciparum FcB1/Columbia, UniProt O96935); assay: P. falciparum M1AAP inhibitors, biochemical, fluorogenic H-Leu-NHMec substrate, 1536-well (AID 1445); set-up: species or system Plasmodium falciparum 3D7, 3D7
T5 sequence (O96935 whole entry): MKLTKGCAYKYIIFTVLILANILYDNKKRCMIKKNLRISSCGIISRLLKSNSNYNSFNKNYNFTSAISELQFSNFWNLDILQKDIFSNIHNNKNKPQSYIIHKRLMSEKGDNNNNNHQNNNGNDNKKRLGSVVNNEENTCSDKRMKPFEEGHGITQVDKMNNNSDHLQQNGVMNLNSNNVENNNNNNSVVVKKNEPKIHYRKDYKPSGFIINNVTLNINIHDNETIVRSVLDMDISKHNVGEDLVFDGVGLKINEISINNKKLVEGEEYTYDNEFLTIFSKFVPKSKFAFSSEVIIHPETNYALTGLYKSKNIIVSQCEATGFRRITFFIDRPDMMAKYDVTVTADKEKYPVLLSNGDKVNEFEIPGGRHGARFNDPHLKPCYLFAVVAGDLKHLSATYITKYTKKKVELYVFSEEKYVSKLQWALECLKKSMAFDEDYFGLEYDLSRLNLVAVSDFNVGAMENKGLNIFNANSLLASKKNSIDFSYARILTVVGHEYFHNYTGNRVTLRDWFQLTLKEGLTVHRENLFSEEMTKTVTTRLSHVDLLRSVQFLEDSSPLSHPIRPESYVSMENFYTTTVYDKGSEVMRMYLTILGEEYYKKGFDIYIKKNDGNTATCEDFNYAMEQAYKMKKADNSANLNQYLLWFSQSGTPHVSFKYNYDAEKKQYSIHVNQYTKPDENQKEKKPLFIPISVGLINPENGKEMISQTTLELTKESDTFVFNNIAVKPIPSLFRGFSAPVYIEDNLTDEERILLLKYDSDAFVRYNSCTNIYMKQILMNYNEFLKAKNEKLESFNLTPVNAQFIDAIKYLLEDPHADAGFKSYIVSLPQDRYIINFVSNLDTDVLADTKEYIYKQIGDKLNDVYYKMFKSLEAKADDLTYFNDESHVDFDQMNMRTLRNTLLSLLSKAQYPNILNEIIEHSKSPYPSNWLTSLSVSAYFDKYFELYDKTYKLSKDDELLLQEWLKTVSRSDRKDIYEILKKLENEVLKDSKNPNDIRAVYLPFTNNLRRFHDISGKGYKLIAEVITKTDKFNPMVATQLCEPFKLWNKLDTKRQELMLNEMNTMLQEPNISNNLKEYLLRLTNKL

[9] = Counterscreen for AddAB inhibitors: absorbance-based bacterial cell-based high throughput dose response assay for inhibitors of bacterial viability. [Related pubchem assays (depositor defined):AID435030, AID449728, AID449731, AID488942, AID488955, AID488956]; assay type: functional
Exodeoxyribonuclease V = Exodeoxyribonuclease V (Escherichia coli (strain K12), UniProt P04993+P07648+P08394); assay: E. coli RecBCD inhibitors, dose response, counter-screen for AddAB inhibitor project, absorbance, V66 E. coli, mutant T4 phage (AID 492957); assay type: functional, cell-based, Escherichia coli str. K-12 substr. MG1655
Nonstructural protein 1 = Nonstructural protein 1 (Influenza A virus, UniProt Q194T2); assay type: functional, Influenza A virus (A/California/07/2009(H1N1))
[10] = target: T6, Microphthalmia-associated transcription factor (Homo sapiens, UniProt O75030); assay: TRPM1 promoter luciferase signal decrease, dose response, MITF inhibitor project, cell-based, SK-MEL-5, cherry-picked, set 3 (AID 493073); assay type: functional
T6 sequence (O75030 whole entry): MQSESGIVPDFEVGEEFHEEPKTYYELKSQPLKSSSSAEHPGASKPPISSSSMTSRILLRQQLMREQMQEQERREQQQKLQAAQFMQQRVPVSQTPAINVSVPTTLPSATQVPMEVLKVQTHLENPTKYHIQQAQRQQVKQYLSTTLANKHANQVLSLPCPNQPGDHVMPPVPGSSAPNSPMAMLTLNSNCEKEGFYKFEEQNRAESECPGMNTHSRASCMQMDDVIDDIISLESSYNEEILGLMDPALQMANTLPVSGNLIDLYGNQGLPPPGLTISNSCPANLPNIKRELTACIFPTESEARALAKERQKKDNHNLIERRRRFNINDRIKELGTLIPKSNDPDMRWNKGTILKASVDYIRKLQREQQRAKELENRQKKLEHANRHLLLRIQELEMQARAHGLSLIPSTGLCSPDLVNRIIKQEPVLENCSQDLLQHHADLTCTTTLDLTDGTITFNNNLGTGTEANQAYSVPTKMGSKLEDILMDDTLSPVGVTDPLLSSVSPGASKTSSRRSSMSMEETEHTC

Cannabinoid receptor 1 = Cannabinoid receptor 1 (Homo sapiens, UniProt P21554); assay: SAR analysis of antagonists of the Cannabinoid Receptor 1 using an Image-Based Assay. [Related pubchem assays (depositor defined):AID1961, AID1965]; assay type: functional
Cannabinoid receptor 2 [11] = target: T7, Cannabinoid receptor 2 (Homo sapiens, UniProt P34972); assay: SAR analysis of agonists of the Cannabinoid Receptor 2 using an Image-Based Assay - Set 2. [Related pubchem assays (depositor defined):AID1961, AID1965]; assay type: functional
[12] = target: G-protein coupled receptor 55 (Homo sapiens, UniProt Q9Y2T6); assay: SAR analysis of selective Agonists of GPR55 using an Image-Based Assay. [Related pubchem assays (depositor defined):AID1961, AID1965]; assay type: functional
Cannabinoid receptor 2 [13] = target: T7, Cannabinoid receptor 2; assay: SAR analysis of antagonists of the Cannabinoid Receptor 2 using an Image-Based Assay - Set 2. [Related pubchem assays (depositor defined):AID1961, AID1965]; assay type: functional

T1 sequence (P41145 whole entry): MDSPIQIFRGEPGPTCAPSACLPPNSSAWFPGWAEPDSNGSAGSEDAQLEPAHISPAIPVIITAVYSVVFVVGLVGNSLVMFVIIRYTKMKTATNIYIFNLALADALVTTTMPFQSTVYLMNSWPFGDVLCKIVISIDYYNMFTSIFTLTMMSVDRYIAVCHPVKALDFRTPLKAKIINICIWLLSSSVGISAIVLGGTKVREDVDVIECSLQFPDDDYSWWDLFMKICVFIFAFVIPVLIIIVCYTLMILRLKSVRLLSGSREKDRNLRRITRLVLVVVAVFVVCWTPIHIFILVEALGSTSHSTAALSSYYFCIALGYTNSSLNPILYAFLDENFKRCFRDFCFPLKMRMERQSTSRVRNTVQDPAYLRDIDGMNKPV
T7 sequence (P34972 whole entry): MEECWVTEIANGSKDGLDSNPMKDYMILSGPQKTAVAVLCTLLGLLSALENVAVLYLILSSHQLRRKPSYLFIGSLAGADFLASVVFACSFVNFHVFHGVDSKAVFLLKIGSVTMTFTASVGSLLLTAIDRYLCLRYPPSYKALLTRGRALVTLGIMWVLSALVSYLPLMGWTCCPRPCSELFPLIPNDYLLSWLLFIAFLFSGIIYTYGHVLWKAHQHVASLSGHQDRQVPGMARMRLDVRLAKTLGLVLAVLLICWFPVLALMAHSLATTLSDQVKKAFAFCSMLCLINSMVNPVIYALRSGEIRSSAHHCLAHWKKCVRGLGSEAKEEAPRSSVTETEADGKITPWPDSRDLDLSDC
T2 sequence (P41143 whole entry): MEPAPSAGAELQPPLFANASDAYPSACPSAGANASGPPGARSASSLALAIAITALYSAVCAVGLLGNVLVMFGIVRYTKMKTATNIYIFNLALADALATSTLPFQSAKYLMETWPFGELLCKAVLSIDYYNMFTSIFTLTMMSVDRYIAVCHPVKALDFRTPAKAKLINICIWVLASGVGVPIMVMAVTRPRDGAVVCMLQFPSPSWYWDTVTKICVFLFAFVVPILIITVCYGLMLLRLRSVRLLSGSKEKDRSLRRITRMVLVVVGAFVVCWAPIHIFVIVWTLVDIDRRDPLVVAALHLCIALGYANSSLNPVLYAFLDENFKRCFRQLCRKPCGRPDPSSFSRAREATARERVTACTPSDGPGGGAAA
Sequence of Cannabinoid receptor 1 (P21554 whole entry): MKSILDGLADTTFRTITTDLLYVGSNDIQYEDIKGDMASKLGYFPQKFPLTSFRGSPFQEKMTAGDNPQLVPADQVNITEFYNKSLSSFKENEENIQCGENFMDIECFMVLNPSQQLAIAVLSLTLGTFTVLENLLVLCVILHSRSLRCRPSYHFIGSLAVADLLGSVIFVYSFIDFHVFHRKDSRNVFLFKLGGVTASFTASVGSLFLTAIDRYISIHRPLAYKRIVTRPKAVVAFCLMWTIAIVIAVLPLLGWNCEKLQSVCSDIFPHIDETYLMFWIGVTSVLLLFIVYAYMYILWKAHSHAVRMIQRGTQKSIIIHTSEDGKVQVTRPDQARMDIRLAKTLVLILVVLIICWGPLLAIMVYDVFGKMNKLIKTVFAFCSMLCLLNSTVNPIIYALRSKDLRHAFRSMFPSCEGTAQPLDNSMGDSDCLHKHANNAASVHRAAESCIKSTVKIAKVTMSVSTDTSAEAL
Sequence of Voltage-dependent T-type calcium channel subunit alpha-1H (O95180 whole entry): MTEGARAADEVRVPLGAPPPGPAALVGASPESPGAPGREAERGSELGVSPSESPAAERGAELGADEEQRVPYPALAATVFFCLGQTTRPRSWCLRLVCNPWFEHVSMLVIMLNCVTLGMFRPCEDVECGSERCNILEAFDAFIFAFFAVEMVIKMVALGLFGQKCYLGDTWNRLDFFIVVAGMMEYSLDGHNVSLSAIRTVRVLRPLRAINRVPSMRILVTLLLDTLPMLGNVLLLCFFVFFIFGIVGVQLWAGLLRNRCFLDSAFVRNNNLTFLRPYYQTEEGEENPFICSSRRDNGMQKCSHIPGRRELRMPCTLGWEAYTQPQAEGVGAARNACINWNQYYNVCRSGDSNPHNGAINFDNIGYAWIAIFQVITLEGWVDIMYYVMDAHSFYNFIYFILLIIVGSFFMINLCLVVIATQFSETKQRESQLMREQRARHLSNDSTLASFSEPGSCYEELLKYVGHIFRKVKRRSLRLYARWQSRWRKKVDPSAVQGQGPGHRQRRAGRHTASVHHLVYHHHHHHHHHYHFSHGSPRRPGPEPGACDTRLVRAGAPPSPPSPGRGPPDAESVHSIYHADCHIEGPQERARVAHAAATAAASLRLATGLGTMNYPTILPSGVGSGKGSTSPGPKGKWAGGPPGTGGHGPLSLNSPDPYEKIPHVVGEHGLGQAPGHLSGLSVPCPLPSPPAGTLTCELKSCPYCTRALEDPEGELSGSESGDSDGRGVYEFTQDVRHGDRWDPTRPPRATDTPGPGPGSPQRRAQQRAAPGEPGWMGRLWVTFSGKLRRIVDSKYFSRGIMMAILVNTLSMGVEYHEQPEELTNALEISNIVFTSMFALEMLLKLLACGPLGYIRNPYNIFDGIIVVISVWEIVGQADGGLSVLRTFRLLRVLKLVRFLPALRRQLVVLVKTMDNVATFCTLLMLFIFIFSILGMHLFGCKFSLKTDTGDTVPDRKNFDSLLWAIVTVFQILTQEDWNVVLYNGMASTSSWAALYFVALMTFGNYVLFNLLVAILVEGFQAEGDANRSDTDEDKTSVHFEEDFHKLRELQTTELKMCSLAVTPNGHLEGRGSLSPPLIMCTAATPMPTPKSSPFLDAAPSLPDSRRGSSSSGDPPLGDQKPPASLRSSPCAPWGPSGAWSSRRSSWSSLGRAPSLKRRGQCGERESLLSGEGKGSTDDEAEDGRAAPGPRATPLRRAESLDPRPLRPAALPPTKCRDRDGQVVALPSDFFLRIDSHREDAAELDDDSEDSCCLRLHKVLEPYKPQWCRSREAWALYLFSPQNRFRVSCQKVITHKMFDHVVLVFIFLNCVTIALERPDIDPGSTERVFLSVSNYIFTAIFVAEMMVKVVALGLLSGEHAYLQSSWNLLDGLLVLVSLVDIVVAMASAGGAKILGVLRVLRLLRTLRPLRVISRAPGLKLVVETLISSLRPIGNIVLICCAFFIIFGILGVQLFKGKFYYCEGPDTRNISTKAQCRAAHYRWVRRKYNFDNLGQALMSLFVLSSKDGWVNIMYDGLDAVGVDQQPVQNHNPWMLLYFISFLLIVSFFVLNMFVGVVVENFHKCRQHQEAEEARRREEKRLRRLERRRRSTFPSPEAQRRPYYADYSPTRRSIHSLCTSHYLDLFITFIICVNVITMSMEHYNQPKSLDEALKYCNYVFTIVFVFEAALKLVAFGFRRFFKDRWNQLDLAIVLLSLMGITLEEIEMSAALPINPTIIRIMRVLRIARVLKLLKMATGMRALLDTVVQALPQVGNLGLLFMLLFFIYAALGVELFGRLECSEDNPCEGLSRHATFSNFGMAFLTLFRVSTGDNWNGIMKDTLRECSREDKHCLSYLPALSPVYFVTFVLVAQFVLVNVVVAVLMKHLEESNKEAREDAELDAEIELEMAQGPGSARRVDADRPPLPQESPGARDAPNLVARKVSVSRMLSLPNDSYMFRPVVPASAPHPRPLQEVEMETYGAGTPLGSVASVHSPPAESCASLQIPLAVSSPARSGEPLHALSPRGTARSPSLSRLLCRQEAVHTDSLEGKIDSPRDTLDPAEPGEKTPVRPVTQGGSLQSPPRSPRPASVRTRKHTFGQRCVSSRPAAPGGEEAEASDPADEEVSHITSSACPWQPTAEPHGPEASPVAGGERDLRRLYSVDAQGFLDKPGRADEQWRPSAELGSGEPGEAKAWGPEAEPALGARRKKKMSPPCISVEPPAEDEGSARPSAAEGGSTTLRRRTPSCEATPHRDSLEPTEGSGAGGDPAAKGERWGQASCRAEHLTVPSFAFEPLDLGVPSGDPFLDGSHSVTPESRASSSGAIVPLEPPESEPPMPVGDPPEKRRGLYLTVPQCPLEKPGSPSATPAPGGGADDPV
Sequence of Beta-galactosidase (Q8VNN2 whole entry): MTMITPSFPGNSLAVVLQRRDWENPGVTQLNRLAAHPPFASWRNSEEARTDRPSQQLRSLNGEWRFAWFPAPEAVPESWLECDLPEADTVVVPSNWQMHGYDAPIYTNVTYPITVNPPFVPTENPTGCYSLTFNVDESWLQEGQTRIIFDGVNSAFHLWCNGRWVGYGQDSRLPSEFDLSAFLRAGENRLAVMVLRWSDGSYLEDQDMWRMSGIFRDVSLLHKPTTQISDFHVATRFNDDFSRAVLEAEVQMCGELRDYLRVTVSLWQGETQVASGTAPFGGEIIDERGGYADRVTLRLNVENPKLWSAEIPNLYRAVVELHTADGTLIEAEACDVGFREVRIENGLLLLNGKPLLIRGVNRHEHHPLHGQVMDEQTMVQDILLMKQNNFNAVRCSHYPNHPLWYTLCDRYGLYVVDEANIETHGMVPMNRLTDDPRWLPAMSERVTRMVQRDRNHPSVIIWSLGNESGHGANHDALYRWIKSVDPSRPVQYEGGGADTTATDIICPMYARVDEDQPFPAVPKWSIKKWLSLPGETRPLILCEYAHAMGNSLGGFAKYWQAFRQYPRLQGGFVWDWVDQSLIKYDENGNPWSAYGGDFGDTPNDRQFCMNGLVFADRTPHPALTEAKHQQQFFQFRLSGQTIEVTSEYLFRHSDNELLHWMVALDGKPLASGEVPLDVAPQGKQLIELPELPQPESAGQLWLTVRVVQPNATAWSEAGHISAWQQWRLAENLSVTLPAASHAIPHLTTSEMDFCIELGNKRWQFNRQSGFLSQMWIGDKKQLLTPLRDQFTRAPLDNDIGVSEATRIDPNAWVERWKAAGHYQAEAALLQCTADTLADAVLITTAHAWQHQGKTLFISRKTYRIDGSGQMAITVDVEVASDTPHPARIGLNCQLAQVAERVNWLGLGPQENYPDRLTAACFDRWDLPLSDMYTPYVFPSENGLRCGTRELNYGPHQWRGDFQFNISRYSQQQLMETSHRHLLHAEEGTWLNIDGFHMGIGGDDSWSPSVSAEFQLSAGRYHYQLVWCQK

SMILES: CC(C)CCN1CC2CCC(NC(=O)c3cc(Cl)cc(Cl)c3)C2C1 (stereo unspecified)
- EC50 [1]: 1.8 µM (active)

SMILES: CCOc1ccccc1C(=O)NC1CC2CCCC(C1)N2Cc1ccc(C)cc1 (stereo unspecified)
- EC50 (Beta-galactosidase): > 31.5 µM (inactive)
- EC50 (Mu-type opioid receptor): > 32 µM (inactive)
- IC50 [2]: 21.7 µM
- IC50 [3]: 4.81 µM (active)
- IC50 [4]: > 32 µM (inactive)
- EC50 [5]: > 32 µM (inactive)

SMILES: O=C1Nc2ccccc2/C1=C1/SC(=S)N(NC(=O)c2ccccc2)C1=O
- IC50 [6]: 6.46 µM (active)
- IC50 [7]: 3.09 µM (active)
- IC50 (Procathepsin L): 38.3 µM (not active)
- IC50 (Aspartyl aminopeptidase): > 73.5 µM (not active)
- IC50 [8]: > 100 µM (inactive)
- IC50 (Aminopeptidase N): 11.2 µM (active)

SMILES: O=C(O)c1cccc(NC(=S)N/N=C/c2ccccn2)c1
- IC50 [9]: > 119 µM (inactive)
- IC50 (Exodeoxyribonuclease V): > 119 µM (inactive)
- IC50 (Nonstructural protein 1): 4.06 µM (active)
- AC50 [10]: 8.63 µM (active)

SMILES: CCCN(CCC)Cc1c(C(=O)NN=C/C(C)=C\c2ccco2)nnn1-c1nonc1N
- IC50 (Cannabinoid receptor 1): > 32 µM (inactive)
- EC50 (Cannabinoid receptor 2 [11]): > 32 µM (inactive)
- EC50 [12]: 0.597 µM (active)
- IC50 (Cannabinoid receptor 2 [13]): > 32 µM (inactive)
